Literature values in US8637688B2, “Topical dosage form comprising tri-substituted glycerol compounds” (priority 2006, dated 2014).

Legend:
[1] = test system: cutaneous metastases from breast cancer; conditions: 6% solution, topical, average dose rate 0.3 mg/cm^2 skin area
[2] = 6% solution, topical

In the case of CCCCCCCCCCCCCCCCOP(=O)([O-])OCC[N+](C)(C)C [miltefosine, hexadecylphosphocholine], the “patients treated who showed a beneficial response to the medicament” value [1] is given as “about one third” and the “skin irritations (redness, itching, cauterization or the like) shortly upon administration” value [2] is given as “significant skin irritations”.
